PMC10186355, “Discovery of 5′-Substituted 5-Fluoro-2′-deoxyuridine Monophosphate Analogs: A Novel Class of Thymidylate Synthase Inhibitors” (ACS Pharmacology & Translational Science, 2023)

Tested on: dihydropyrimidine dehydrogenase (DPD)
Test: not given
Design: method as in PMID 9830621, PMID 31756363
Conditions: cited from earlier work

| Compound | catabolic degradation in the liver by DPD |
| --- | --- |
| O=c1[nH]cc(F)c(=O)[nH]1 [5-FU, 5-Fluorouracil] | up to 85% |

Molecular target: T1, recombinant human thymidylate synthase (hTS) (Homo sapiens, UniProt P04818)
T1 construct: His tag (N); purchased Abcam ab95378
Test: cell-free human thymidylate synthase (hTS) inhibition assay
Format: biochemical
Conditions: 0.84 μM hTS, 50 μM dUMP, 250 μM mTHF, DHF formation at 340 nm, room temperature, pH 7.5
Procedure: This assay measures TS-catalyzed conversion of dUMP and mTHF to dTMP and dihydrofolate (DHF), the latter of which uniquely absorbs strongly at 340 nm (Figures S1 and S2). […] Concentration–response curves were constructed by plotting the normalized reaction rates (calculated using data from the first 100 s after reaction initiation) versus log[inhibitor].
The final concentrations of hTS, dUMP, and mTHF in the reaction systems were 0.84 μM, 50 μM, and 250 μM, respectively. The reaction rates were determined by following the change in the optical absorbance at 340 nm, which corresponded to the formation of the coproduct, DHF.
Human Thymidylate Synthase Inhibition Assay
Recombinant human thymidylate synthase (hTS) was purchased from Abcam (ab95378). The protein was
His-tagged (N-terminal) and >95% pure by SDS-PAGE according to the vendor. dUMP (disodium salt)
(F3503), 5,10-methylenetetrahydrofolate (mTHF, calcium salt , folitixorin calcium ) was purchased from
Boc Sciences (B0084-007873), and all were used without further purification. The cell-free functional hTS
assay protocol was modified from literature procedures :
Inhibition assays were performed using a BioTek Synergy Neo2 plate reader equipped with a Xenon flash
lamp and a photodiode array detector. The hTS reaction was conducted at room temperature in a buffer
solution (pH 7.5) containing 50 mM Tris -HCl, 1 mM EDTA, 25 mM MgCl 2, and 5 mM HCHO. The
reaction system (175 μL total volume, 1 cm optical path lengt h) contained 50 μM dUMP (primary
substrate), 250 μM mTHF (co-substrate and enzyme cofactor), 0.84 μM hTS (enzyme), and decreasing
Formation of the co -product, dihydrofolate, was monitored at 340 nm. Reaction rates were
calculated by plotting t he absorbance at 340 nm against the reaction time and performing linear regression
analysis to determ ine the slope. The reaction rates at different inhibitor concentrations were normalized to
the reaction rate determined in the absence of inhibitor (100% enzymatic activity). Concentration-response
curves were constructed by plotting t he resulting mean % enzymatic activity values (from at least three
independent experiments) against log[inhibitor]. IC50 values were then calculated using non -linear
regression (four -parameter logistic equation, see Equation 1 below) in the GraphPad Prism v.9 software.
Equation 1: Y = Ymin + (Ymax – Ymin) / [1 + 10((logIC50 – X) × Hill Slope)]

T1 sequence (P04818 whole entry): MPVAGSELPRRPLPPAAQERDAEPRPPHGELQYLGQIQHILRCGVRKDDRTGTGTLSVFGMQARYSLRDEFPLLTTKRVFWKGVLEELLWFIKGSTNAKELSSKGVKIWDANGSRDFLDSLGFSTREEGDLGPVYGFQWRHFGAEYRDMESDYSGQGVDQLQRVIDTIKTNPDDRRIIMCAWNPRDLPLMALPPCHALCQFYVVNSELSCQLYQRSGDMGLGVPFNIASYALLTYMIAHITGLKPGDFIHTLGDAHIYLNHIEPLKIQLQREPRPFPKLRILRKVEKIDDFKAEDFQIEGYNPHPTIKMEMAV

| Compound | IC50 [µM] |
| --- | --- |
| O=c1[nH]c(=O)n([C@H]2C[C@H](O)[C@@H]([C@@H](OP(=O)(O)O)C(F)(F)F)O2)cc1F [Compound 5, 5′(R)-CF3 FdUMP] | > 20 |
| C[C@@H](OP(=O)(O)O)[C@H]1O[C@@H](n2cc(F)c(=O)[nH]c2=O)C[C@@H]1O [Compound 1, 5′(R)-CH3 FdUMP] | 1.21 |
| CC(C)(OP(=O)(O)O)[C@H]1O[C@@H](n2cc(F)c(=O)[nH]c2=O)C[C@@H]1O [Compound 3, 5′-gem-(CH3)2 FdUMP] | > 20 |
| O=c1[nH]c(=O)n([C@H]2C[C@H](O)[C@@H]([C@H](OP(=O)(O)O)C(F)(F)F)O2)cc1F [Compound 4, 5′(S)-CF3 FdUMP] | 1.24 |
| C[C@H](OP(=O)(O)O)[C@H]1O[C@@H](n2cc(F)c(=O)[nH]c2=O)C[C@@H]1O [Compound 2, 5′(S)-CH3 FdUMP] | > 20 |
